Consider 38 molecules from ChEMBL document CHEMBL3039007, “Structure-based identification of OATP1B1/3 inhibitors” (Mol Pharmacol, 2013).

What is called residual activity is the signal under treatment as a percentage of the control signal.

Data set [1] concerns the target T1, Solute carrier organic anion transporter family member 1B1 (Homo sapiens, UniProt Q9Y6L6).
T1 sequence (Q9Y6L6 whole entry): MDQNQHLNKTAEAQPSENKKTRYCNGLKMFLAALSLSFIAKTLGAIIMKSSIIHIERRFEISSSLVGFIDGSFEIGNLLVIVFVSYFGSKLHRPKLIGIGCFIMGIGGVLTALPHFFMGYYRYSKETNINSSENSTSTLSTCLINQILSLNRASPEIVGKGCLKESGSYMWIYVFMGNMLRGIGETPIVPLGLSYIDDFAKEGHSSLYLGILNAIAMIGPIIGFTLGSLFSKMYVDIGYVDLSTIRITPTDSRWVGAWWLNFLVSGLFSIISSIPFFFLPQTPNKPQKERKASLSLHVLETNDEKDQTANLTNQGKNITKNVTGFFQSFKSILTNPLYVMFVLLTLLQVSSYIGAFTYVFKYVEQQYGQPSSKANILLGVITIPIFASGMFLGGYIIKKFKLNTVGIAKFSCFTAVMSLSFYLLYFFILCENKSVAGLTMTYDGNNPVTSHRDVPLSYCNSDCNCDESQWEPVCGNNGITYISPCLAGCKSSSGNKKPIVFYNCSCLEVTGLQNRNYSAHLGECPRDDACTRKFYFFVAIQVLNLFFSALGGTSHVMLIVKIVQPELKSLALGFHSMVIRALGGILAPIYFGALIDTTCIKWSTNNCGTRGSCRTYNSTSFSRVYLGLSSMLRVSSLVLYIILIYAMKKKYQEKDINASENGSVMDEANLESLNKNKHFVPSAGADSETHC
The settings on record: chinese hamster, cho, 10 µM.

Data set [2] concerns the target T2, Solute carrier organic anion transporter family member 1B3 (Homo sapiens, UniProt Q9NPD5).
T2 sequence (Q9NPD5 whole entry): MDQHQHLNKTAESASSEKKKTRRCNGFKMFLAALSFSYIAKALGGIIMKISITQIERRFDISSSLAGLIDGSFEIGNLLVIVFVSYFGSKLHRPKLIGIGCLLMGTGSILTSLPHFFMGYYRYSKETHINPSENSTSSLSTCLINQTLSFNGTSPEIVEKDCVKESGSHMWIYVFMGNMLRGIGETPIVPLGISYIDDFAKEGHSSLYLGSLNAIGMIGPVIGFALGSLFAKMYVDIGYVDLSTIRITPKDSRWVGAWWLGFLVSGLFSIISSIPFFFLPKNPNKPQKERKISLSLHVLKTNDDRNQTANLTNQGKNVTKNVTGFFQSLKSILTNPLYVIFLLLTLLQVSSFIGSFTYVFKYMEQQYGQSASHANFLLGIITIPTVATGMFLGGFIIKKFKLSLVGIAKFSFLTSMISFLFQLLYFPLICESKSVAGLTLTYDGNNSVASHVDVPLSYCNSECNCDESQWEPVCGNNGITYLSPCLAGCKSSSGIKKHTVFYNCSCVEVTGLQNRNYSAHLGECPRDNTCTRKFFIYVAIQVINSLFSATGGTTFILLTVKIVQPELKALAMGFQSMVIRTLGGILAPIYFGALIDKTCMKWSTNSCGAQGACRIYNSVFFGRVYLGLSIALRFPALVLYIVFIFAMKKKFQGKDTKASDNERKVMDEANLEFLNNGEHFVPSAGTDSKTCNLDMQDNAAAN
The settings on record: chinese hamster, cho, 10 µM.

With `COc1ccc(-c2coc3c(OC)c(OC)cc(OC)c3c2=O)cc1` [ISOTECTORIGENIN TRIMETHYL ETHER], the results for the residual activity in data set [1] and in data set [2] were 133.5% and 118.2%, respectively.

For the molecule `COc1ccc(-c2coc3c(OC)c(OC)cc(O)c3c2=O)cc1` [ISOTECTORIGENIN, 7-METHYL ETHER], the residual activity in data set [1] turned out to be 135.9%; in data set [2] it was 105%.

With `CC1=C(/C=C/C(C)=C/C=C/C(C)=C\C(=O)O)C(C)(C)CCC1` [ISOTRETINOIN], the residual activity in data set [1] was 32.24%; in data set [2], 51.47%.

For the molecule `Cc1cc(NC(=O)C2=C(O)c3ccccc3S(=O)(=O)N2C)no1` [ISOXICAM], the results for the residual activity in data set [1] and in data set [2] were 111.2% and 86.6%, respectively.

Turning to `CC(COc1ccccc1)NC(C)C(O)c1ccc(O)cc1.Cl` (stereo unspecified) [ISOXSUPRINE HYDROCHLORIDE], the residual activity in data set [1] was found to be 38.44%; in data set [2], 77.52%.

On to `C/C=C(/C)C(=O)O[C@@H]1Cc2c(ccc3ccc(=O)oc23)OC1(C)C` [JATAMANSIN], for which the residual activity is on record as 165.1% in data set [1] and 153% in data set [2].

As to `O=C(O)/C=C/C=C/c1ccccc1` [JUAREZIC ACID], the results for the residual activity in data set [1] and in data set [2] were 102.3% and 88.74%, respectively.

With `O=C1C=CC(=O)c2c(O)cccc21` [JUGLONE], the residual activity in data set [1] is reported as 66.93%; in data set [2], 93.79%.

Regarding `C=C(C)[C@H]1CN[C@H](C(=O)O)[C@H]1CC(=O)O` [KAINIC ACID], the residual activity in data set [1] is 106.3%; in data set [2] it was 103.1%.

As for `C[C@@H]1O[C@@H](O[C@H]2[C@H](O[C@H]3CC[C@@]4(C)[C@@H](CC[C@]5(C)[C@@H]4CC=C4[C@@H]6CC(C)(C)CC[C@]6(C(=O)O[C@@H]6O[C@H](CO[C@@H]7O[C@H](CO)[C@@H](O[C@@H]8O[C@@H](C)[C@H](O)[C@@H](O)[C@H]8O)[C@H](O)[C@H]7O)[C@@H](O)[C@H](O)[C@H]6O)CC[C@]45C)[C@]3(C)CO)OC[C@H](O)[C@@H]2O)[C@H](O)[C@H](O)[C@H]1O` [KALOPANAXSAPONIN B], the figures for the residual activity in data set [1] and in data set [2] were 127.7% and 109.8%, respectively.

`COc1c(-c2ccccc2)oc2c(ccc3occc32)c1=O` [KARANJIN]: the residual activity in data set [1] was determined as 50.39%; in data set [2] it was 124.7%.

Turning to `Oc1cc(O)c2c(c1)O[C@H](c1cc(O)c(O)c(O)c1)[C@H](O)[C@H]2c1c(O)cc(O)c2c1O[C@H](c1cc(O)c(O)c(O)c1)[C@H](O)[C@H]2c1c(O)cc(O)c2c1O[C@H](c1cc(O)c(O)c(O)c1)[C@H](O)C2` [KATACINE], the residual activity was 133.4% in data set [1] and 99.79% in data set [2].

As for `NC(CO)(CO)CO.O=C(c1ccccc1)c1ccc2n1CCC2C(=O)O` (stereo unspecified) [KETOROLAC TROMETHAMINE], the results for the residual activity in data set [1] and in data set [2] were 196.1% and 87.08%, respectively.

Regarding `CN1CCC(=C2c3ccccc3CC(=O)c3sccc32)CC1.O=C(O)/C=C/C(=O)O` [KETOTIFEN FUMARATE], the residual activity in data set [1] was found to be 94.79%; in data set [2], 89.36%.

For the molecule `CCC(=O)OC1[C@@H]2CC3=C4CC(=O)O[C@@H](c5ccoc5)[C@]4(C)CCC3[C@@](C)(C2=O)[C@@H](CC(=O)OC)C1(C)C` (stereo partly specified) [KHAYASIN C], the figures for the residual activity in data set [1] and in data set [2] were 59.29% and 67.18%, respectively.

Regarding `CCC(C)C(=O)OC1[C@@H]2CC3=C4CC(=O)O[C@@H](c5ccoc5)[C@]4(C)CCC3[C@@](C)(C2=O)[C@@H](CC(=O)OC)C1(C)C` (stereo partly specified) [KHAYASIN], the residual activity in data set [1] turned out to be 98.52%; in data set [2], 83.34%.

In the case of `COc1c2occc2c(OC)c2c(=O)cc(C)oc12` [KHELLIN], the residual activity in data set [1] stood at 83.15%; in data set [2] it was 102.2%.

In the case of `CC(=O)O[C@H]1C[C@@H](OC(C)=O)C(C)(C)[C@@H]2C[C@@H](OC(C)=O)[C@]3(C)[C@H](CC[C@@]4(C)[C@H](c5ccoc5)OC(=O)[C@H]5O[C@@]534)[C@@]12C` [KHIVORIN], the figures for the residual activity in data set [1] and in data set [2] were 77.22% and 94.96%, respectively.

Consider `COc1ccc(-c2coc3cc(O)ccc3c2=O)c(OC)c1O` [KHRINONE E], for which the residual activity in data set [1] amounted to 85.61%; in data set [2], 96.23%.

In the case of `OC[C@H]1O[C@@H](n2cnc3c(NCc4ccco4)ncnc32)[C@H](O)[C@@H]1O` [KINETIN RIBOSIDE], the residual activity in data set [1] amounted to 114.7%; in data set [2], 112%.

On to `c1coc(CNc2ncnc3[nH]cnc23)c1` [KINETIN], for which the values for the residual activity in data set [1] and in data set [2] were 96.48% and 100.6%, respectively.

Regarding `CC1(C)C[C@@H]2C(=O)CC[C@H]3O[C@]3(C)CC[C@H]21` [KOBUSONE], the residual activity is 64.48% in data set [1] and 84.64% in data set [2].

For the molecule `O=c1cc(CO)occ1O` [KOJIC ACID], the residual activity was 79.88% in data set [1] and 80.38% in data set [2].

In the case of `COc1ccc(-c2coc3cc(O)ccc3c2=O)c(O)c1O` [KOPARIN], the residual activity in data set [1] is listed as 88.35%; in data set [2], 86.85%.

As to `COc1c(O)cc2c(-c3ccccc3)cc(=O)oc2c1OC` [KUHLMANNIN], the residual activity is recorded as 128.2% in data set [1] and 118.4% in data set [2].

As to `NCCC(=O)c1ccccc1N` [KYNURAMINE], the values for the residual activity in data set [1] and in data set [2] were 113.9% and 89.22%, respectively.

Take `Nc1ccccc1C(=O)CC(N)C(=O)O` (stereo unspecified) [KYNURENINE]: the residual activity in data set [1] turned out to be 58.07%; in data set [2] it was 67.15%.

For `C[C@H](N)CO` [L-ALANINOL], the residual activity in data set [1] is on record as 73.39%; in data set [2], 104%.

On to `NC(=O)NCCC[C@H](N)C(=O)O` [L-CITRULLINE], for which the residual activity in data set [1] turned out to be 135.1%; in data set [2], 119.7%.

As for `N[C@H](CO)Cc1ccccc1` [L-PHENYLALANINOL], the results for the residual activity in data set [1] and in data set [2] were 77.2% and 101.5%, respectively.

As for `CC(CCc1ccccc1)NCC(O)c1ccc(O)c(C(N)=O)c1.Cl` (stereo unspecified) [LABETALOL HYDROCHLORIDE], the residual activity in data set [1] came out at 93.55%; in data set [2], 101.4%.

As for `OC[C@H]1O[C@@H](O[C@@H]2[C@@H](CO)O[C@](O)(CO)[C@H]2O)[C@H](O)[C@@H](O)[C@H]1O` [LACTULOSE], the residual activity in data set [1] is 90.31%; in data set [2], 104.9%.

On to `C[C@@H]1CC[C@H]2[C@](C)(CO)[C@@H](O)CC[C@]2(C)[C@@]12CC[C@@](CO)(CCO)O2` [LAGOCHILINE], for which the residual activity in data set [1] turned out to be 99.12%; in data set [2], 95.67%.

On to `CC(=O)O[C@H]1C[C@H](O[C@H]2[C@@H](O)C[C@H](O[C@H]3[C@@H](O)C[C@H](O[C@H]4CC[C@@]5(C)[C@H](CC[C@@H]6[C@@H]5C[C@@H](O)[C@]5(C)[C@@H](C7=CC(=O)OC7)CC[C@]65O)C4)O[C@@H]3C)O[C@@H]2C)O[C@H](C)[C@H]1O[C@@H]1O[C@H](CO)[C@@H](O)[C@H](O)[C@H]1O` [LANATOSIDE C], for which the residual activity in data set [1] came to 102.5%; in data set [2], 86.15%.

Turning to `CC(C)=CCC[C@@H](C)[C@H]1CC[C@@]2(C)C3=C(CC[C@]12C)[C@@]1(C)CC[C@H](O)C(C)(C)[C@@H]1CC3` [LANOSTEROL], the residual activity is reported as 53.97% in data set [1] and 90.91% in data set [2].

On to `Cc1c(OCC(F)(F)F)ccnc1C[S+]([O-])c1nc2ccccc2[nH]1` (stereo unspecified) [LANSOPRAZOLE], for which the figures for the residual activity in data set [1] and in data set [2] were 95.47% and 100.5%, respectively.

Take `CC(C)=CCC1=C(O)C(=O)c2ccccc2C1=O` [LAPACHOL]: the residual activity in data set [1] came to 115.5%; in data set [2] it was 108.2%.

`COc1ccc(CC2c3cc(OC)c(OC)cc3CCN2C)cc1OC` (stereo unspecified) [LAUDANOSINE]: the residual activity in data set [1] stood at 107.4%; in data set [2], 114.7%.
